# Experimental data reported in patent US20070207993A1, “Molybdenum carbonyl complexes for treating rheumatoid arthritis and other inflammatory diseases” (Alfama - Investigacao e Desenvolvimetno De Productos …, priority 2005, published 2007).
# Assay: CO release in vivo (CO-hemoglobin in blood by oximeter)
# Conditions: Balb/c mice, intraperitoneal, 100, 25 and 6.25 mg/kg, propylene glycol-water; 0, 30, 120 (330) minutes
# Description: Nine week old Balb/c mice with a body weight of about 20 g were injected by the intraperitoneal route with Compound I.1 dissolved in a propylene glycol-water mixture. Three doses (100, 25 and 6.25 mg/kg) were used. At various times after the administration of the Compound I.1 blood was collected and CO-hemoglobin levels were determined using an oximeter.
# Compound I.1 was administered intraperitonally to mice at a concentration of 100 mg/kg using propylene glycol/water ca.˜2:1 as vehicle. The amount of COHb (carboxyhemoglobin) was monitored with an oximeter in blood samples withdrawn at 0, 30, 120 and 330 minutes after administration. The results are shown in FIG. 9 and show a peaked level of CO after 30 minutes followed by a slow decline.
# Compound I.1 was encapsulated in methylated β-cyclodextrin, 2,3,6-tri-O-methyl-β-cyclodextrin, known in the art as TRIMEB, by a standard technique. The encapsulated Compound I.1@TRIMEB (“@” means “encapsulated in”) was administered intraperitonally to mice at a concentration of 30 mg/kg using phosphate buffered saline (PBS) as vehicle. The amount of COHb (carboxyhemoglobin) was monitored with an oximeter in blood samples withdrawn after 30, 60, 90 and 120 minutes after administration.
structure (smiles),measurement,value
O=[C][Mo]([Br])([C]=O)([C]=O)([C]=O)[C]=O [Compound I.1],CO-hemoglobin level time course,"increase in CO levels during the first time interval, followed by a slow decline"
